“Also recorded” adds a separate entry of the source.
Assays:
RARs = conditions: from the literature; cited from earlier work
RXRs = conditions: from the literature; cited from earlier work
GAL4-RAR = target: T1, GAL4-RAR (Homo sapiens, UniProt P10276); experiment: GAL4-receptor chimera ligand activation, GAL4-RAR with TK-MH100x4-LUC in CV1 cells; format: cell-based; conditions: 10^-5 M 9cRA, 10^-5 M TTNPB, 10^-4 M methoprene acid, FIG. 3c
T1 construct: hRARα 185-462; expressed in transfected cells; host or cells: CV-1
T1 sequence (P10276 185-462): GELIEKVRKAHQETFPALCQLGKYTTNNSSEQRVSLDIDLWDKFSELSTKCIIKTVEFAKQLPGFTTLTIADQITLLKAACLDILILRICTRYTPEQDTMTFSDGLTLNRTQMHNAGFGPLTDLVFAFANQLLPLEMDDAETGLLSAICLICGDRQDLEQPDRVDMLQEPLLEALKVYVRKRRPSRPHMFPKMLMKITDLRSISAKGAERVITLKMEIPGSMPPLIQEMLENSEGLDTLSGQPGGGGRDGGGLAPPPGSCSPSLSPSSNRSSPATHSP
Procedure: (§1) FIG. 3C illustrates the ligand specificity of the GAL4-receptor chimeras. […] In both 3B and 3C, CV1 cells were cotransfected as described previously with CMX vectors driving expression of the indicated hybrid proteins and the reporter plasmid TK-MH100x4-LUC, which contains four copies of the GAL4 DNA upstream activation sequence. In FIG. 3C, ligands were added as described with reference to FIG. 2. Luciferase activity is expressed as RLUs (relative light units) corrected for transfection efficiency using an internal […] standard and represents the mean of triplicate assays (±SEM).
(§2) The hLXRα cDNA insert was excised from the plasmid pXR2ΔRV with Kpn1 and BamHI and ligated into the expression vectors RSV and CMX. […] The cDNAs encoding the ligand-binding domain (LBD) of each of the receptors were then ligated into the polylinker to create GAL4-LBD fusions.
(§3) Such heterologous system provides an effective means for directly assaying receptor/ligand interactions, even in the presence of endogenous wild-type receptors.

GAL4-LXR = target: T2, GAL4-LXR (Homo sapiens, UniProt Q13133); experiment: GAL4-receptor chimera ligand activation, GAL4-LXR with TK-MH100x4-LUC in CV1 cells; format: cell-based; conditions: 10^-5 M 9cRA, 10^-5 M TTNPB, 10^-4 M methoprene acid, FIG. 3c
T2 construct: hLXRα 166-447; expressed in transfected cells; host or cells: CV-1
T2 sequence (Q13133 166-447): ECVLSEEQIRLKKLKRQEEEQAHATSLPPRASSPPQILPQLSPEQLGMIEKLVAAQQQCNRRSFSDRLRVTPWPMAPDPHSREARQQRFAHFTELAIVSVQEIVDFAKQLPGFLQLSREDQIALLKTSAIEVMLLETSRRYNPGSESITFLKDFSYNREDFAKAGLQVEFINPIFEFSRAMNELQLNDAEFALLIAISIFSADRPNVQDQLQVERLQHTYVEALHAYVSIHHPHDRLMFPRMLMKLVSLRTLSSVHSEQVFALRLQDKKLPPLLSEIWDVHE
Procedure: as §1
Construction of wild-type receptor inserted into the expression vectors RSV and CMX, have been detailed elsewhere (Gigueere et al., in Cell46:645-652 (1986); Umesono et al., in Cell65:1255-1266 (1991); Mangelsdorf et al., (1990) supra). The hLXRα cDNA insert was excised from the plasmid pXR2ΔRV with Kpn1 and BamHI and ligated into the expression vectors RSV and CMX. Chimeric Gal4-receptor expression plasmids (e.g. CMX-GAL4-LXRα) were constructed by first ligating the GAL4 portion of pSG424 (Sadowski and Ptashne, in Nucleic Acids Res. 17:[…] (1989)) into the HindIII/SacI sites of pCMX (Umesono et al., in Cell 65:1255-1266 (1991)) to create pCMX-GAL4. This vector contains the CMV promoter fused to the coding sequence for GAL4 (1-147), followed by inframe polylinker cloning sites and translational stop codons. The cDNAs encoding the ligand-binding domain (LBD) of each of the receptors were then ligated into the polylinker to create GAL4-LBD fusions.
The following receptor amino acid sequences were used for these constructions and their corresponding DNA sequences ligated into pCMX-GAL4:hLXRα 166-447, hRXRα 203-462 and hRARα 185-462.
To address the possibility that the retinoid response elicited by LXRα was through the direct interaction of ligand with the putative ligand binding domain of LXRα, ligand activation experiments were performed with the GAL4-receptor hybrids. […]

hLXRα = experiment: CV-1 cotransfection assay, hLXRα expression plasmid with LXRE luciferase reporter (TK-LXRE3-LUC / TK-LXRE2-LUC); format: cell-based, human; conditions: for LXRα activation of LXRE-containing luciferase reporter (TK-LXRE3-LUC): CV-1 cells, hLXRα transfected alone, 10^-5 M 9cRA, 10^-5 M TTNPB, 10^-4 M methoprene acid, harvested 36 hours after ligand
Procedure: (§4) CV-1 cells were maintained at 37° C., 5% CO2 in DMEM containing 5% calf bovine serum (CBS). Transfections were performed in 8-well plates in media containing 5% dextran-charcoal stripped CBS by the calcium phosphate coprecipitation technique as described previously (Mangelsdorf et al., (1990) supra). Eight hours after transfections ligands were delivered to cells at 10^3 -fold dilutions (0.1% vol/vol of solvent in media). Retinoids (gifts from Marcus Boehm at Ligand Pharmaceuticals, Inc.) were manipulated under gold light and stored dark in ethanol or methanol under nitrogen gas at -80° C. Cells were harvested 36 hours after addition of ligand and analyzed for luciferase and β-galactosidase activity using a Dynatech microtiter plate Model ML3000 luminometer and a Model MR5000 spectrophotometer, respectively.
(§5) For most experiments, cotransfection of DNA into mammalian cells was accomplished with 50 ng reporter plasmid, 50 ng RSV- or CMX-βgal, 25 ng of each receptor expression plasmid and pGEM carrier to give 375 ng DNA/well. For controls, the empty CMX vector was used in place of the receptor cDNA. For the GAL4-receptor chimera experiments, 30 ng receptor and 80 ng of reporter plasmid were used. For GAL4 and VP16 chimera interaction assays, 30 ng of GAL4-LXRα and 15 ng of the VP16-RAR or -RXR were used along with 80 ng of the reporter plasmid. All transfection data points were normalized using an internal β-galactosidase marker (Mangelsdorf et al., (1990) supra) and represent the mean of duplicate or triplicate assays.
To identify a potential ligand for the orphan receptor LXRα, a cell-based cotransfection screening assay similar to that used to successfully identify the RXR ligand (see Mangelsdorf et al., (1990) supra; Heyman et al., in Cell68:397-406 (1992)) was employed. Initially an LXR responsive gene was unknown, therefore the preliminary experiments were designed to first identify an LXR-specific DNA binding sequence that could serve as an LXR responsive element (referred to as an LXRE). […] Thus, an assay system was established by transfecting CV-1 cells with an expression plasmid harboring the cDNA for LXRα and the luciferase reporter plasmid TK-LXRE3-LUC (see FIG. 2a). TK-LXRE3-LUC contains three copies of the LXRE defined herein; TK-CRBPII-LUC contains the RXRE from the rat CRBPII promoter (Mangelsdorf et al., (1991) supra)); TK-βRE-LUC contains the RAR response element from the mouse RARβ2 promoter (Sucov et al., (1990) supra). Luciferase activity is expressed in relative light units (RLU) and represents the mean of triplicate assays (±SEM) normalized to βgal as an internal standard.
Thus, expression plasmids for hLXRα, hRXRα, or no receptor (-) were cotransfected into CV1 cells in combination with the reporter plasmids TK-LUC or TK-LXRE2-LUC as indicated. […]

LXR/RXR heterodimer = target: T3, LXR/RXR heterodimer (Homo sapiens, UniProt P19793); experiment: CV1 cotransfection of both hLXRα and hRXRα with LXRE reporter TK-LXRE2-LUC; format: cell-based; conditions: CV1 cells, 25 ng hLXRα:2.5 ng hRXRα; 10^-4 M methoprene acid; FIG. 4
T3 construct: Construction of wild-type receptor inserted into the expression vectors RSV and CMX; expressed in transfected cells; host or cells: CV-1
T3 sequence (Q13133 whole entry A196R): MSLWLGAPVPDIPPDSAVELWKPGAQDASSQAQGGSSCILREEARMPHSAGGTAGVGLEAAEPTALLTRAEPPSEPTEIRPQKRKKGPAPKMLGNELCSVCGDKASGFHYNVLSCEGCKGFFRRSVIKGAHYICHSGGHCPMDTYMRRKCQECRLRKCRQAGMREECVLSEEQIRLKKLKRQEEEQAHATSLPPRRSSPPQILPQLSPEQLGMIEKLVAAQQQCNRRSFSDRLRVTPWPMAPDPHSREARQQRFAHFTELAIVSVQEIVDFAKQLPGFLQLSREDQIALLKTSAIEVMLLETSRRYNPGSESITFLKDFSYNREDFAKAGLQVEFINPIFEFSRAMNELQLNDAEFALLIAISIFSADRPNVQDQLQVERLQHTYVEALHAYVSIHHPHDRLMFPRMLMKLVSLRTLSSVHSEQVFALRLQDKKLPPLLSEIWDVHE
T3 sequence (P19793 whole entry): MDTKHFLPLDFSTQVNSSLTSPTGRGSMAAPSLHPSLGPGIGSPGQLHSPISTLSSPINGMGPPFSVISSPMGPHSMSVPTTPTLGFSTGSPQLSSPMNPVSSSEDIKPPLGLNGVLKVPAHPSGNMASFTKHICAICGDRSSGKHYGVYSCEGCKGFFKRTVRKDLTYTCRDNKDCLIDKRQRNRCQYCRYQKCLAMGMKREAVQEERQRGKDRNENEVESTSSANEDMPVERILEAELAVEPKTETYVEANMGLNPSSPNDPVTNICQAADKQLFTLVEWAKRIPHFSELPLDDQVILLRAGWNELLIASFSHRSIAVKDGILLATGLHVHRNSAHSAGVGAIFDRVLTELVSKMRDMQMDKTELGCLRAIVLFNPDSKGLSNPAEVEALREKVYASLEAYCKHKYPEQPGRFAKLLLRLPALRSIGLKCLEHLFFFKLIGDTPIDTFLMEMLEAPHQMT
Procedure: Thus, expression plasmids for hLXRα, hRXRα, or no receptor (-) were cotransfected into CV1 cells in combination with the reporter plasmids TK-LUC or TK-LXRE2-LUC as indicated. Cells were then incubated with ethanol control (-) or […] methoprene acid (+) and assayed for luciferase activity as described above. TK-LXRE2-LUC contains two copies of the LXRE. In experiments in which LXR and RXR plasmids were cotransfected together the ratio of the two expression plasmids was 1:0.1 (25 ng hLXRα:2.5 ng hRXRα). In all other experiments were LXR and RXR were added alone, the amount of each receptor expression plasmid was 25 ng.

GAL4-RXR = target: T4, GAL4-RXR (Homo sapiens, UniProt P19793); experiment: GAL4-receptor chimera ligand activation, GAL4-RXR with TK-MH100x4-LUC in CV1 cells; format: cell-based; conditions: 10^-5 M 9cRA, 10^-5 M TTNPB, 10^-4 M methoprene acid, FIG. 3c
T4 construct: hRXRα 203-462; expressed in transfected cells; host or cells: CV-1
T4 sequence (P19793 203-462): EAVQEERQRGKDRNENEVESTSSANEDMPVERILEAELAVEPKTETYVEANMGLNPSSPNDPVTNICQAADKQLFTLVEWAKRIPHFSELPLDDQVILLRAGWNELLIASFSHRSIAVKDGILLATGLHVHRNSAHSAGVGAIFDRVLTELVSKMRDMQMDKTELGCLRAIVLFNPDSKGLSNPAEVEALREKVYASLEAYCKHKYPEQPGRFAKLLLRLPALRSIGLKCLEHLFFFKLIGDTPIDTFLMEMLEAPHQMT
Procedure: as §1, §2, §3

hRXRα [1] = target: T5, hRXRα (Homo sapiens, UniProt P19793); experiment: CV1 cotransfection of hRXRα alone with LXRE luciferase reporter; format: cell-based; conditions: CV1 cells, 25 ng hRXRα; 10^-4 M methoprene acid; FIG. 4
T5 construct: Construction of wild-type receptor inserted into the expression vectors RSV and CMX; expressed in transfected cells; host or cells: CV-1
T5 sequence (P19793 whole entry): as the sequence (P19793 whole entry) above
Procedure: as §4
as §5, with “All transfection data points were normalized using an internal β-galactosidase marker (Mangelsdorf et al., (1990) supra) and represent the mean of duplicate or triplicate assays.” left out

hRXRα [2] = target: T5, hRXRα; experiment: CV-1 cotransfection assay, hRXRα expression plasmid with RXRE luciferase reporter TK-CRBPII-LUC; format: cell-based; conditions: CV1 cells, 10^-4 M methoprene acid, FIG. 2d
Procedure: as §4
as §5, with “All transfection data points were normalized using an internal β-galactosidase marker (Mangelsdorf et al., (1990) supra) and represent the mean of duplicate or triplicate assays.” left out

hRARα = target: T6, hRARα (Homo sapiens, UniProt P10276); experiment: CV-1 cotransfection assay with RAR response element luciferase reporter (TK-βRE-LUC); format: cell-based; conditions: CV1 cells; 10^-5 M TTNPB, 10^-4 M methoprene acid; occurs also without transfected RAR or RXR
T6 construct: Construction of wild-type receptor inserted into the expression vectors RSV and CMX; expressed in transfected cells; host or cells: CV-1
T6 sequence (P10276 whole entry): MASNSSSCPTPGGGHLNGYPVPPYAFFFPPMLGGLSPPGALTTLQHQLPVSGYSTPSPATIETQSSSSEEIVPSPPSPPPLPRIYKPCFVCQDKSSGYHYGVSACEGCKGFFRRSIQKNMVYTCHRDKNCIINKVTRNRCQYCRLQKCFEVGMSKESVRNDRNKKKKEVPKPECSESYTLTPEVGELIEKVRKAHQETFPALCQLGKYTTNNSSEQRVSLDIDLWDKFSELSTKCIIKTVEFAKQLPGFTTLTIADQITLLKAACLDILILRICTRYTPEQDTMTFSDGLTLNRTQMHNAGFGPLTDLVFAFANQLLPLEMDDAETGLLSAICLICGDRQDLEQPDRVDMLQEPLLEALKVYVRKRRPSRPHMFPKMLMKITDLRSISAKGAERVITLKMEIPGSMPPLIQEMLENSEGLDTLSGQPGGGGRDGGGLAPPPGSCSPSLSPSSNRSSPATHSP
T6 sequence (P19793 whole entry, further chain): as the sequence (P19793 whole entry) above
Procedure: as §4
as §5, with “All transfection data points were normalized using an internal β-galactosidase marker (Mangelsdorf et al., (1990) supra) and represent the mean of duplicate or triplicate assays.” left out

LXRα/RXRα heterodimer = LXRα/RXRα heterodimer (Homo sapiens, UniProt Q13133;P19793 Q13133:1-447,P19793:1-462); experiment: EMSA; strong complex; supershifted by anti-RXRα; 75 mM KCl, 20 mM Hepes pH 7.4; conditions: tags: none; coupled in vitro transcription/translation (Promega); label: 32P; HindIII overhangs
Chain of LXRα/RXRα heterodimer (P19793 whole entry, one chain of several): as the sequence (P19793 whole entry) above
Procedure: (§6) For EMSA experiments, receptor proteins were generated using a coupled in vitro transcription/translation system according to the manufacturer's instructions (Promega). Sequences of double-stranded oligonucleotides were as shown in the figures and text and were synthesized with HindIII overhangs. Binding reactions were performed in a total volume of 20 μl consisting of 75 mM KCl, 20 mM Hepes, pH 7.4, 2 mM DTT, 7.5% glycerol, 0.1% NP-40, 2
(§7) MG poly (dI-dC) (Pharmacia), 40 pmol of a non-specific single-stranded oligonucleotide (for removal of non-specific binding in the lysates), and 2 μl of receptor lysates or unprogrammed (control) lysates. Reactions containing lysates and competing oligonucleotides were incubated for 30 minutes on ice followed by the addition of 40 fmol of ^32P-labeled oligonucleotide probe (labeled by end-filling) and further incubated for 20 minutes at room temperature. Samples were then analyzed on 5% polyacrylamide gels run in 0.5X TBE buffer. For antibody supershifting experiments, 1 μl of anti-hRXRα antiserum (a gift from Jacki Dyck), or non-specific antiserum was added to the reactions after addition of the radiolabeled probe and incubated at room temperature for 10 minutes, followed by gel electrophoresis.

RXRα = RXRα (Homo sapiens, UniProt P19793 P19793:1-462); experiment: EMSA; RXRα alone; conditions: label: 32P; HindIII overhangs
Chain of RXRα (P19793 whole entry, one chain of several): as the sequence (P19793 whole entry) above
Procedure: as §6, §7

| Molecule | Ligand binding / specificity for RAR (RARs) | Ligand binding / specificity for RXR (RXRs) | Ligand inducible transactivation by GAL4-RAR chimera (GAL4-RAR) | Ligand inducible transactivation by GAL4-LXR chimera (GAL4-LXR) | LXRα activation of LXRE-containing luciferase reporter (TK-LXRE3-LUC) (hLXRα) | also measured |
| --- | --- | --- | --- | --- | --- | --- |
| CC1=C(/C=C/C(C)=C/C=C/C(C)=C/C(=O)O)C(C)(C)CCC1 [atRA, All-trans retinoic acid] | ligand for only RARs | ligand for only RARs | – | – | – | – |
| CC1=C(/C=C/C(C)=C\C=C\C(C)=C\C(=O)O)C(C)(C)CCC1 [9cRA, 9-cis retinoic acid] | high affinity ligand for both RARs and RXRs; also recorded: binds to both RXR and RAR | high affinity ligand for both RARs and RXRs; also recorded: binds to both RXR and RAR | activates both RXR and RAR | no activation | strongly activated | – |
| C/C(=C\c1ccc(C(=O)O)cc1)c1ccc2c(c1)C(C)(C)CCC2(C)C [TTNPB, (E)-4-[2-(5,6,7,8-tetrahydro-5,5,8,8-tetramethyl-2-napthalenyl) -1-propenyl]benzoic acid] | RAR-specific | – | – | no activation | no effect | – |
| COC(C)(C)CCCC(C)C/C=C/C(C)=C/C(=O)O (centres unmarked) [methoprene acid] | – | RXR-specific | only activates RXR | no activation | strongly activated; also recorded: strongly activates transcription | Retinoid responsive activity of TK-LXRE2-LUC with LXRα and RXRα together (LXR/RXR heterodimer): dramatic synergistic increase; Ligand inducible transactivation by GAL4-RXR chimera (GAL4-RXR): only activates RXR; Ligand response of TK-LXRE2-LUC with RXRα alone (hRXRα [1]): no response; Response of RXRE reporter TK-CRBPII-LUC in the presence of RXRα (hRXRα [2]; hRXRα transfected): marked response; Response of RXRE reporter TK-CRBPII-LUC with RARα or LXRα transfected instead of RXRα (hRXRα [2]): not RARα or LXRα; Retinoid response of RAR response element reporter (hRARα): occurs through an RXR homodimer; Ligand response of TK-LXRE2-LUC with LXRα alone (hLXRα; CV1 cells, 25 ng hLXRα, methoprene acid, FIG. 4): marked ligand response |
| LXRE (ΔMTV) (dsDNA) DNA 1: CTTGCGGTTCCCAGGGTTTAAATAAGTTCA DNA 2: TGAACTTATTTAAACCCTGGGAACCGCAAG | – | – | – | – | – | binding result (LXRα/RXRα heterodimer): binds; binding result (RXRα): no binding |

— patent publication US5747661A, “Retinoid-inducible response elements” (Howard Hughes Medical Institute)
